For 1 compound, Ki results are on record in BindingDB's records for doi:10.1016/j.chembiol.2009.07.006 (Burnham Institute For Medical Research, 2009).

In the assay the target is T1, Nicotinate-nucleotide adenylyltransferase (Escherichia coli (strain K12), UniProt P0A752).
T1 sequence (P0A752 whole entry): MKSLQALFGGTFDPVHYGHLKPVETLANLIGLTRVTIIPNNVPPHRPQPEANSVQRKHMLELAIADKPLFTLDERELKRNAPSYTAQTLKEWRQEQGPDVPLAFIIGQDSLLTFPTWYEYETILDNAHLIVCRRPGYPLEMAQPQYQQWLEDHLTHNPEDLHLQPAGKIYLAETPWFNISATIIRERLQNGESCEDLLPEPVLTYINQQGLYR
Nature of the assay: Enzymatic Inhibition Assay. An excerpt:
The enzymatic assay was masured at fixed NaMN and ATP concentration (equal to two-fold km values)with various concentration of inhibitory compounds.

“And” between values parts separate entries of the source, which are not always exact repeats. Equal entries are not always repeated.

Take `O=C(CCC(=O)Nc1cccc(Cl)c1)NN=Cc1c2ccccc2cc2ccccc12` [NadD inhibitor 1_02]: the Ki was 8 µM and 5 µM.

What is called Ki is a dissociation constant, usually derived from enzyme kinetics or from competition with a known ligand. Low readings indicate tighter binding, high ones weaker binding.
